Laboratory results reported in article PMC11990670, “Exploring the Volatility, Phase Transitions, and Solubility Properties of Five Halogenated Benzaldehydes” (Molecules, 2025).
Read-outs that look alike come from different tables or passages of the source.

Experiments:
[1] = cited from earlier work
[2] = Gibbs energy of hydration and Henry's law volatility constant calculated from sublimation and solubility data; settings: 25 °C
Experimental: The concentration was measured by absorbances at 260 nm for 4-chlorobenzaldehyde, 263 nm for 4-bromobenzaldehyde and 2,4-dichlorobenzaldehyde, 297 nm for 2,6-dichlorobenzaldehyde, and 306 nm for 2,3-dichlorobenzaldehyde, using a Cary-60 UV–vis (Agilent) spectrophotometer. X-ray diffraction (XRD) and differential scanning calorimetry of residual solids were used to identify the eventual phase transformations. The purified samples of each compound studied were used for all experimental determinations, including the solubility measurements. After reaching the equilibrium, the residual solid was dried and analyzed using both DSC and XRD. The melting properties obtained from DSC were compared with those of the original purified sample, following the same procedure for the XRD analysis. […] As an example, the supporting information includes two thermograms and two XRD patterns for 2,4-dichlorobenzaldehyde (Figures S1 and S2). […] Equation (4) was derived from Equation (5), which is widely applicable to the solubility of solids.(4) ΔhydrGm°/kJ·mol^−1=9.17−5.71·log10(Scr/mol·m^−3)−ΔcrgGm°/kJ·mol^−1 (5) S=p^°/RTexpΔcrgGm°+ΔhydrGm°/−RT
The standard states in Equation (5) are p° = 1 × 10^5 Pa for ΔcrgGm° , c° = 1 mol·L^−1 for ΔhydrGm° and s° = 1 mol·m^−3 for solubility. Using the experimental results of ΔhydrGm° , calculated through Equation (4), the values of Henry’s law volatility constants, KHpc, were determined in the logarithm form by Equation (6), that was adapted from Modarressi et al..

[3] = Thermodynamic properties of sublimation and vaporization from Clarke and Glew fit of vapor pressures
Excerpt: The experimental crystalline and liquid vapor pressures were independently fitted by the Clarke and Glew Equation (1) in its truncated form:(1) Rlnp/p^°=−ΔcdgGm°θ/θ+ΔcdgHm°θ1/θ−1/T+ΔcdgCp,m°θθ/T−1+lnT/θ where R is the molar gas constant, p is the vapor pressure at the temperature T, p° is a selected reference pressure (p° = 10^5 Pa in this work), and θ is a reference temperature. The differences between gaseous and condensed phases of standard molar Gibbs energy, enthalpy, and the isobaric heat capacity are represented, respectively, by ΔcdgGm° , ΔcdgHm° , and ΔcdgCp,m° .
The values of ΔcdgCp,m° are generally achieved only when accurate experimental data measured over ca. 50 K are reachable. […] For comparison reasons, the values of ΔcrgCp,m° were also calculated as ΔcrgCp,m°(θ)=Cp,m°(g)−Cp,m°(cr) , where the terms Cp,m°(g) and Cp,m°(cr) are, respectively, the gas and crystalline isobaric molar heat capacities. […] The crystalline molar heat capacities, Cp,m°(cr) , were determined at different temperatures using differential scanning calorimetry, enabling the fit to second-order polynomials in temperature, represented by Equation (3) and reported in Table 3. […] The values of Cp,m°(cr,298.15 K) were derived from these equations, allowing ΔcrgCp,m°(298.15 K) to be calculated.

[4] = 20 °C, cited from earlier work
[5] = crystalline phase, θ = 291.18 K (mean temperature)
[6] = crystalline phase, θ = 298.15 K, p° = 10^5 Pa
[7] = crystalline phase, θ = 319.43 K (triple point)
[8] = liquid phase including supercooled liquid, θ = 298.15 K, p° = 10^5 Pa
[9] = liquid phase, θ = 319.43 K (triple point)
[10] = liquid phase, θ = 331.52 K (mean temperature)

Gibbs energy of hydration ΔhydrGm° ([2]; calculated by Equation (4)): -4.23 kcal/mol
log10(KHpc/kPa·m^3·mol^−1) Henry's law volatility constant ([2]; calculated by Equation (6)): −2.71
KHpc×10^3 Henry's law volatility constant ([2]; value is KHpc multiplied by 10^3): 1.95 kPa·m^3·mol^−1
triple point pressure ptp ([3]; Ttp = 319.43 K): 1.23 × 10^2 Pa
p (Equation (1)) vapor pressure [3, 5]: 8.54 Pa
ΔcdgGm°(θ) standard molar Gibbs energy of sublimation [3, 5]: 5.421 ± 0.0024 kcal/mol
ΔcdgHm°(θ) standard molar enthalpy of sublimation [3, 5]: 17.6 ± 0.024 kcal/mol
p (Equation (1)) vapor pressure ([3]; crystalline phase, θ = 298.15 K): 17.3 Pa
ΔcdgGm°(θ) standard molar Gibbs energy of sublimation [3, 6]: 5.131 ± 0.0024 kcal/mol
ΔcdgHm°(θ) standard molar enthalpy of sublimation [3, 6]: 17.5 ± 0.048 kcal/mol
ΔcdgSm°(θ) (Equation (2)) standard molar entropy of sublimation [3, 6]: 173.8 ± 0.7 J·K^−1·mol^−1
p (Equation (1)) vapor pressure [3, 7]: 123 Pa
ΔcdgGm°(θ) standard molar Gibbs energy of sublimation [3, 7]: 4.252 ± 0.0048 kcal/mol
ΔcdgHm°(θ) standard molar enthalpy of sublimation [3, 7]: 17.4 ± 0.14 kcal/mol
p (Equation (1)) vapor pressure ([3]; liquid phase including supercooled liquid, θ = 298.15 K): 27.3 Pa
ΔcdgGm°(θ) standard molar Gibbs energy of vaporization [3, 8]: 4.861 ± 0.0072 kcal/mol
ΔcdgHm°(θ) standard molar enthalpy of vaporization [3, 8]: 13.6 ± 0.14 kcal/mol
ΔcdgSm°(θ) (Equation (2)) standard molar entropy of vaporization [3, 8]: 122.0 ± 2.0 J·K^−1·mol^−1
p (Equation (1)) vapor pressure [3, 9]: 123 Pa
ΔcdgGm°(θ) standard molar Gibbs energy of vaporization [3, 9]: 4.252 ± 0.0048 kcal/mol
ΔcdgHm°(θ) standard molar enthalpy of vaporization [3, 9]: 13.2 ± 0.048 kcal/mol
p (Equation (1)) vapor pressure [3, 10]: 262 Pa
ΔcdgGm°(θ) standard molar Gibbs energy of vaporization [3, 10]: 3.917 ± 0.0024 kcal/mol
ΔcdgHm°(θ) standard molar enthalpy of vaporization [3, 10]: 13 ± 0.024 kcal/mol
Structure (SMILES): O=Cc1ccc(Cl)cc1 [4-Chlorobenzaldehyde]
water solubility, estimated value ([1]; 25 °C, converted from 1340 mg/L): 9.532 mM
water solubility, estimated value ([1]; 25 °C): 1340 µg/mL
water solubility, estimated value ([1]; ALI method): 8.15 mM
water solubility, estimated value ([1]; ESOL method): 3.45 mM
water solubility, estimated value ([1]; SILICO-IT method): 1.16 mM
water solubility ([4]; converted from 935 mg/L): 6.652 mM
water solubility [4]: 935 µg/mL
